Measurements: ChEMBL document CHEMBL4619750, “Benzoxepinones: A new isoform-selective class of tumor associated carbonic anhydrase inhibitors” (Bioorg Med Chem, 2020)

Key:
[1] = target: Carbonic anhydrase 2 (Homo sapiens, UniProt P00918); assay: Inhibition of human carbonic anhydrase 2 assessed as inhibitory constant incubated for 6 hrs by stopped-flow CO2 hydration assay
[2] = target: Carbonic anhydrase 1 (Homo sapiens, UniProt P00915); assay: Inhibition of human carbonic anhydrase 1 assessed as inhibitory constant incubated for 6 hrs by stopped-flow CO2 hydration assay
[3] = target: Carbonic anhydrase 9 (Homo sapiens, UniProt Q16790); assay: Inhibition of human carbonic anhydrase 9 assessed as inhibitory constant incubated for 6 hrs by stopped-flow CO2 hydration assay

Chain of Carbonic anhydrase 1 (P00915 whole entry): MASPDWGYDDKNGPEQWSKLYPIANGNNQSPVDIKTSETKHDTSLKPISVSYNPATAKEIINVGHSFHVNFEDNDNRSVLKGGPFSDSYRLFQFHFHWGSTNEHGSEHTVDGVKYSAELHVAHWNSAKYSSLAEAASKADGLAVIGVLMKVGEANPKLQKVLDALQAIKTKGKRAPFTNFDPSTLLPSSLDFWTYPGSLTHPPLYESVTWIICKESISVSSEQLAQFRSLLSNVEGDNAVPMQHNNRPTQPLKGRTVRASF

| Ki [1] [µM] | Ki [2] [µM] | Ki [3] [µM] | Structure (SMILES) |
| --- | --- | --- | --- |
| > 100 | > 100 | 0.171 | COC(=O)C1=Cc2ccc(C)cc2OC(=O)C1 |
| > 100 | > 100 | 0.078 | COC(=O)C1=Cc2ccc(Cl)cc2OC(=O)C1 |
| > 100 | > 100 | 0.0717 | COC(=O)C1=Cc2cc(C)ccc2OC(=O)C1 |
| 76.2 | > 100 | 0.02 | COC(=O)C1=Cc2cc(Cl)ccc2OC(=O)C1 |
| > 100 | > 100 | 0.254 | COC(=O)C1=Cc2ccccc2OC(=O)C1 |
| > 100 | > 100 | 0.0838 | COC(=O)C1=Cc2ccc(OC)cc2OC(=O)C1 |

More lines, now with the values behind:

| Structure (SMILES) | Ki [1] [µM] | Ki [2] [µM] | Ki [3] [µM] |
| --- | --- | --- | --- |
| COC(=O)C1=Cc2cc(C(C)(C)C)ccc2OC(=O)C1 | 85.7 | > 100 | 0.0373 |
| CCN(CC)c1ccc2c(c1)OC(=O)CC(C(=O)OC)=C2 | > 100 | > 100 | 0.0934 |
| COC(=O)C1=Cc2cc(OC)ccc2OC(=O)C1 | 66.8 | > 100 | 0.0402 |
| COC(=O)C1=Cc2ccc3ccccc3c2OC(=O)C1 | > 100 | > 100 | 0.303 |
| COC(=O)C1=Cc2cc(C(=O)OC)ccc2OC(=O)C1 | > 100 | > 100 | 0.0393 |
| COC(=O)C1=Cc2cccc(OC)c2OC(=O)C1 | > 100 | > 100 | 0.0463 |
